We go through 1 molecule from patent US12496291B1, “Ready-to-use non-aqueous oral solution of losartan” (Liqmeds Worldwide Limited, priority 2024, dated 2025).

Data set [1] can be described thus: Solubility study of losartan potassium with different solubilizers and pH modifying agent. Format: physicochemical. The settings on record: losartan potassium 10 mg/mL, below pH 5.5, citrate buffer 50 mM plus solubilizer. An excerpt: The solubility of losartan potassium below pH 5.5 was checked in the presence of different solubilizers and pH modifying agent.

For data set [2] the following is noted: descriptive term; cited from earlier work.

Consider `CCCCc1nc(Cl)c(CO)n1Cc1ccc(-c2ccccc2-c2nnn[nH]2)cc1.[K]` [Losartan potassium, 2-butyl-4-chloro-1-[p-(o-1H-tetrazol-5-ylphenyl)benzyl]imidazole-5-methanol monopotassium salt], for which, in data set [1], the “Observations (solubility of losartan potassium)” value was “insolubility”. Besides, in data set [2], the Solubility in alcohols result was “soluble”; the Solubility in chloroform entry is listed as “practically insoluble”; the “Solubility in common organic solvents, such as acetonitrile and methyl ethyl ketone” value is listed as “slightly soluble”; the Solubility in water result is given as “freely soluble”.
